Assay results: ChEMBL document CHEMBL3860030, “Design, synthesis and biological evaluation of novel macrocyclic bisbibenzyl analogues as tubulin polymerization inhibitors” (Eur J Med Chem, 2016)
Structures can show the parent of a compound that is named as a salt. Blank lines part the entries; values can stand above or below the molecule they belong to. Calls of active or inactive are those of the source. The calls are words filed in the database; no cut-off is given here.

What was measured:
Bos taurus [1] = organism: Bos taurus; experiment: Induction of bovine brain tubulin polymerization at 5 uM measured every minute for 1 hr by spectrophotometric method
Bos taurus [2] = organism: Bos taurus; experiment: Inhibition of bovine brain tubulin polymerization at 5 uM measured every minute for 1 hr by spectrophotometric method
HCC1428 = experiment: Cytotoxicity against human HCC1428 cells assessed as decrease in cell viability at 1 uM after 60 hrs by xCELLigence system; assay type: functional, cell-based
cells = conditions: Homo sapiens, HeLa, 48 h
Description: Cytotoxicity against human HeLa cells assessed as decrease in cell viability after 48 hrs by MTT assay

[3] = Cytotoxicity against human HCC1428 cells assessed as decrease in cell viability after 48 hrs by MTT assay; assay type: functional, cell-based; conditions: HCC1428, 48 h
[4] = Cytotoxicity against human HT-29 cells assessed as decrease in cell viability after 48 hrs by MTT assay; assay type: functional, cell-based; conditions: HT-29, 48 h
[5] = Cytotoxicity against docetaxel-resistant human PC3 cells assessed as decrease in cell viability after 48 hrs by MTT assay; assay type: functional, cell-based; conditions: PC-3, 48 h

Activity (Bos taurus [1]): Active
SMILES: CC(=O)O[C@H]1C(=O)[C@@]2(C)[C@H]([C@H](OC(=O)c3ccccc3)[C@]3(O)C[C@H](OC(=O)[C@H](O)[C@@H](NC(=O)c4ccccc4)c4ccccc4)C(C)=C1C3(C)C)[C@]1(OC(C)=O)CO[C@@H]1C[C@@H]2O

inhibition (Bos taurus [2]): Active
SMILES: CC[C@]1(O)C[C@H]2CN(CCc3c([nH]c4ccccc34)[C@@](C(=O)OC)(c3cc4c(cc3OC)N(C=O)[C@H]3[C@@](O)(C(=O)OC)[C@H](OC(C)=O)[C@]5(CC)C=CCN6CC[C@]43[C@@H]65)C2)C1
Activity (HCC1428): Active

IC50 (cells): 1.06 µM
SMILES: COc1cccc2c1C(=O)c1c(O)c3c(c(O)c1C2=O)C[C@@](O)(C(=O)CO)C[C@@H]3O[C@H]1C[C@H](N)[C@H](O)[C@H](C)O1 [DOXORUBICIN HYDROCHLORIDE]
IC50 [3]: 1.56 µM | IC50 [4]: 1.46 µM | IC50 [5]: 15.2 µM
